Molecules are shown by their SMILES.

This data set can be described thus: gradient 5% acetonitrile 3 min, to 50% in 2 min, to 85% in 15 min, held 3 min, 100 µL/min. The following applies: column: Zorbax Extend-C18 2.1 x 50 mm; eluents: water / acetonitrile, 0.1% formic acid. The procedure, abridged: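 Retention times of pure standards were taken from adduct peaks that were selected by computer and manually inspected. Over 3 months, mixtures of ~100 molecules were run by HPLC–quadrupole time-of-flight mass spectrometry in positive and negative ionization mode. The Zorbax Extend-C18 column (2.1 × 50 mm, 1.8 μm) ran at 100 μL/min in water and acetonitrile, each containing 0.1% formic acid, with 40 μL dead volume and 900 μL dwell volume.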
Take `CCCC(=O)Nc1ccc(-n2cnc(C(=O)N3CCN(c4cccc(C)c4C)CC3)c2)nc1`: the RP-LC retention time is 929 s.
To `Fc1ccc(-c2nc3cnccn3c2Nc2ccc3c(c2)OCCO3)cc1` belongs 818 s; to `CCc1nc2cc(-c3noc(Cc4ccc(C)cc4)n3)ccc2o1`, 1160 s; to `Cc1cc(C)cc(NC(=O)NCC2(N3CCOCC3)CCOC2)c1` (centres undefined), 617 s.
To `CCc1c(C(=O)O)nnn1Cc1ccc(OC)cc1` belongs 734 s.
To `CCCn1ccc2sc(C)c(C(=O)NC3CCN(Cc4ccccc4)CC3)c2c1=O` belongs 625 s.
In turn, `COC(=O)C(Cc1ccccc1)NC(=O)N1CCCn2nc(-c3cccnc3)cc2C1` (centres undefined) had an RP-LC retention time of 616 s.
Take `Cc1ccc(Cl)cc1NC(=O)Cn1ncc2c(c1=O)N(CC1CC1)C(=O)CS2`: the RP-LC retention time is 860 s.
`CSc1cccc(NC(=O)N2CCN(Cc3nc4cc(C)ccc4o3)CC2)c1` had an RP-LC retention time of 776 s.
To `COc1ccc(NC(=O)c2ccc(-c3ccc(-c4noc(C)n4)cc3C)cc2)cc1N1CCN(C)CC1` belongs 812 s; to `CCN(CC)c1ncc(NC(=O)c2ccc(Br)cc2)cc1C(=O)O`, 692 s; to `Cc1ccc(N(C)C(=O)C2CCCN(c3ncnc4c3nc3n4CCCCC3)C2)cc1C` (centres undefined), 897 s.
To `CCOC(=O)C1CCN(C(=O)C2(c3ccc(NS(C)(=O)=O)cc3)CCCCC2)CC1` belongs 894 s; to `CCC(=O)N1CCCc2cc(NC(=O)c3ccco3)ccc21`, 725 s; to `CCc1nc(-c2csc(S(=O)(=O)N3CCC(C(=O)Nc4ccccc4CC)CC3)c2)no1`, 1010 s.
The compound `COc1ccc(CNC(=O)C2(C)CCCN(S(=O)(=O)c3ccc(C)cc3)C2)cc1` (centres undefined) gave an RP-LC retention time of 946 s.
To `Cc1ccc(C(=O)N2CCCCC2c2nc(-c3cccnc3)no2)cn1` (centres undefined) belongs 641 s.
To `O=C(Nc1ccc2c(c1)OCO2)C1CC(=O)N(c2n[nH]c3cccc(F)c23)C1` (centres undefined) belongs 694 s; to `O=C(Cc1nnc(-c2cnccn2)o1)Nc1ccccc1Cl`, 681 s; to `CCOc1ccccc1N1CCN(S(=O)(=O)c2nn(C)cc2C(=O)NCCCOC(C)C)CC1`, 971 s.
To `O=C(CSc1nnc(C2COc3ccccc3O2)o1)NCc1ccco1` (centres undefined) belongs 648 s; to `CCCNC(=O)c1cn(-c2cc(-c3nc(C(C)C)no3)ccn2)cn1`, 860 s.
`Cc1cccc(NC(=O)N2CC(F)(F)C[C@H]2CN2CCCC2)c1C` showed an RP-LC retention time of 647 s.
To `O=C(Nc1sc2c(c1C(c1ccccn1)N1CCN(c3ccccn3)CC1)CCCC2)c1ccco1` (centres undefined) belongs 775 s; to `CC1(C)COCN1S(=O)(=O)c1ccc(C(=O)Nc2nnc(-c3cccs3)o2)cc1`, 750 s.
To `CCOC(=O)c1nc(Nc2ccccc2OCC)c2ccccc2n1` belongs 942 s.
The compound `COCCNC(=O)CSc1nccc2c1ccn2Cc1ccccc1` had an RP-LC retention time of 666 s.
To `O=C1C[C@@H]2OCC=C3C[N+]4([O-])CC[C@]56c7ccccc7N1[C@H]5[C@H]2[C@H]3C[C@@H]64` (some centres undefined) belongs 639 s; to `CCOCC(=O)N1CCc2nc(N3CCN(C)CC3)sc2C1`, 557 s; to `CC1=C(c2cccc(Br)c2)S(=O)(=O)N=C1N1CCN(c2ccccn2)CC1`, 686 s.
`CCN(CC)c1ccc(C(=O)N2CCC(c3cc(N)on3)CC2)cc1`: the RP-LC retention time was 605 s.
`COCCN1C(=O)[C@H]2CN(Cc3ccccc3OC(F)(F)F)C[C@H]2C1=O` registered an RP-LC retention time of 743 s.
To `Cc1ccccc1CNC(=O)c1cc2n(n1)CC(C)(C(=O)NCc1ccccc1)N(C)C2=O` (centres undefined) belongs 769 s; to `CCOC(=O)c1sc2ccccc2c1S(=O)(=O)N1CCC(C(N)=O)(N2CCCCC2)CC1`, 656 s.
Compound `O=c1c2cc(-c3ccc(F)cc3)nn2ccn1Cc1noc(CN2CCCCC2)n1` registered an RP-LC retention time of 656 s.
Regarding `O=C(Cn1cnc2ccccc21)NCCNc1cc(-n2cccn2)ncn1`, the RP-LC retention time came to 550 s.
To `COc1cc(OC)cc(-c2nc(-c3cn(-c4ccc(C)cc4)nn3)no2)c1` belongs 1140 s.
To `Cc1nnc(C2CCCN(C(=O)Cn3c(=O)oc4ccccc43)C2)s1` (centres undefined) belongs 633 s.
To `CC(NC(=O)Cn1c(C(F)(F)F)nc2ccccc21)c1ccc2c(c1)OCCCO2` (centres undefined) belongs 842 s; to `CSc1ncc(Cl)c(C(=O)Nc2cc(C)on2)n1`, 783 s; to `CCCn1c(-c2cccc(C(=O)NCc3ccc(C(F)(F)F)cc3)c2)nc2cccnc21`, 933 s.
In turn, `CCn1cc(S(=O)(=O)NCc2cccc(C)c2)c2cccnc21` came in with an RP-LC retention time of 845 s.
To `O=C(NC1CCN(c2cc(-c3ccc(F)cc3)[nH]n2)C1)c1cccs1` (centres undefined) belongs 699 s.
To `O=C(NC1CCCC1)C1CCN(C(=O)c2cccn2-c2cccnc2)CC1` belongs 632 s; to `COCC(=O)N(CC(=O)N1CCc2sccc2C1COc1cccc(OC)c1)C1CC1` (centres undefined), 800 s; to `Cc1nn(Cc2cccc(C(=O)Nc3nc(-c4ccccc4)cs3)c2)c(C)c1Cl`, 1160 s.
To `CCSc1ccccc1C(=O)Nc1cccc2ccc(OC)nc12` belongs 1200 s; to `Cn1c(=O)n(C)c2cc(Nc3cc(N4CCOCC4)ncn3)ccc21`, 566 s; to `Cc1cccc(CS(=O)(=O)N2CC(c3nc(Cc4ccccc4)no3)C2)c1`, 977 s.
Take `Cn1c(C(=O)N2CCN(c3ccccn3)CC2)c(N2CCCC2=O)c2cc(F)ccc21`: the RP-LC retention time worked out at 635 s.
Take `CCn1cc(C(=O)Nc2ccc(C)c(F)c2)c(S(=O)(=O)N2CCSCC2)n1`: the RP-LC retention time amounted to 901 s.
To `CC(C)c1ccc(NC(=O)Cn2c(=O)cc(-c3nc(C4CC4)no3)c3ccccc32)cc1` belongs 1120 s; to `O=c1n(CC2CC2)c2cccnc2n1[C@H]1CCCN(S(=O)(=O)c2cccnc2)C1`, 835 s; to `CC(C)NC(=O)C1CCN(C(=O)c2cc(-c3ccncc3)n[nH]2)CC1`, 556 s.
To `CCc1nc2cc(-c3noc(-c4ccsc4)n3)ccc2o1` belongs 1100 s; to `CCOc1ccc(NC(=O)Cc2nnc(-c3ccc4ncccc4c3)o2)cc1`, 718 s; to `Cn1cc2c3c(cccc31)CN(C(=O)Cc1ccc(Cl)cc1)CC2`, 986 s.
In the case of `COc1ccc(S(=O)(=O)N2CCCC(C(=O)NC(C)(C)C)C2)cc1OC` (centres undefined), the RP-LC retention time was 707 s.
To `CCNC(=O)c1[nH]c2ccccc2c1N1CCCC1=O` belongs 657 s.
To `Cc1cc(OCc2nc(C)c(C(=O)Nc3nc(-c4ccccc4)cs3)s2)ccc1Cl` belongs 1330 s.
To `COc1ccc(CNC(=O)CSc2cc(N3CCN(c4ccc(OC)cc4)CC3)ncn2)cc1` belongs 1090 s.
Take `CC(C)CC(=O)N1CCN(c2nc(CN3CCOCC3)cs2)CC1`: the RP-LC retention time turned out to be 590 s.
`CCCCN1C(=O)NC(c2ccccc2)C(c2nc(-c3ccccc3)no2)=C1C` (centres undefined) returned an RP-LC retention time of 1130 s.
Compound `CC1CCN(C(=O)C2CC(=O)N(CCc3c[nH]c4ccc(F)cc34)C2)CC1` (centres undefined) yielded an RP-LC retention time of 797 s.
As to `COc1ccc(-c2nc(Cc3noc(Cc4cccc(F)c4)n3)c(C)o2)cc1`, the RP-LC retention time was determined as 1000 s.
To `O=C1CC(C(=O)N2CCN(c3ccccc3)CC2)CN1CCc1c[nH]c2ccc(F)cc12` (centres undefined) belongs 819 s; to `O=C(Nc1nc(-c2ccc(F)cc2)cs1)c1c(-c2ccc(F)cc2)nc2n1CCS2(=O)=O`, 1050 s.
To `COC(=O)c1ccc2c(=O)n(-c3cccc(Cl)c3)c(N3CCC(C(N)=O)CC3)nc2c1` belongs 781 s; to `COc1cc(-c2noc(Cn3nc(-c4ccc(Br)cc4)ccc3=O)n2)cc(OC)c1OC`, 1020 s.
To `COCCN(CC(=O)N1CCc2sccc2C1COc1ccc(Cl)cc1)C(=O)C1CC1` (centres undefined) belongs 931 s.
`COc1cccc(-c2ccc(=O)n(Cc3nc(-c4ccc(F)cc4)no3)n2)c1` showed an RP-LC retention time of 984 s.
`CCOc1cc(=O)n2c(c1C(=O)Nc1cc(F)ccc1Cl)CCCC2`: the RP-LC retention time was 822 s.
To `CCOC(=O)c1ccc(NC(=O)C23CCC(C)(C(=O)C2)C3(C)C)cc1` (centres undefined) belongs 897 s; to `Cc1nc(-c2ccc(C(=O)NC3CCCC3)cc2)cs1`, 825 s; to `COc1ccc(Cl)cc1NC(=O)C1CCN(S(C)(=O)=O)c2ccccc2O1` (centres undefined), 1030 s.
To `COc1ccc(Cl)cc1NC(=O)NCCC1CCN(S(=O)(=O)c2ccc(F)cc2)CC1` belongs 1030 s.
`Cc1nc(CC(=O)Nc2nc(-c3ccc(Br)cc3)c(C)s2)cs1` gave an RP-LC retention time of 994 s.
To `COCC(C)(O)CNC(=O)C(=O)Nc1cccc(F)c1` (centres undefined) belongs 675 s; to `CCOC(=O)c1ccccc1NC(=O)CSc1ccc(-c2ccccn2)nn1`, 906 s.

(Values after the METLIN SMRT retention time set (Domingo-Almenara et al. 2019).)
